The source of these data is patent US20220370451A1, “INHIBITORS OF HUMAN IMMUNODEFICIENCY VIRUS REPLICATION” (VIIV HEALTHCARE UK ( No. 5) LIMITED, priority 2019, published 2022).

The nature of data set [1]: Compound cytotoxicity, XTT-based colorimetric assay. The class given is cell-based. The note with it: human; uninfected MT2 cells, day 4, XTT. How it is done: Compound cytotoxicity and the corresponding CC50 values were determined using the same protocol as described in the antiviral assay except that uninfected cells were used. Cytotoxicity was assessed on day 4 in uninfected MT2 cells by using a XTT (2,3-bis[2-Methoxy-4-nitro-5-sulfophenyl]-2H-tetrazolium-5-carboxyanilide inner salt)-based colorimetric assay (Sigma-Aldrich, St Louis, Mo.).

In a further data set the test system is recombinant NL4-3 virus. The data set is described as follows: HIV cell culture assay (luciferase reporter antiviral activity). Type of data set: cell-based. The note with it: Human immunodeficiency virus 1, NL43, MT2. How it is done: HIV cell culture assay—MT=2 cells, 293T cells and the proviral DNA clone of NL4-3 virus were obtained from the NIH AIDS Research and Reference Reagent Program. MT=2 cells were propagated in RPMI 1640 media supplemented with 10% heat inactivated fetal bovine serum (FBS), […] penicillin G and up to 100 units/mL streptomycin. The 293T cells were propagated in DMEM media supplemented with 10% heat inactivated FBS, […] penicillin G and […] streptomycin. A recombinant NL4-3 proviral clone, in which a section of the nef gene was replaced with the Renilla luciferase gene, was used to make the reference virus used in these studies. The recombinant virus was prepared through transfection of the recombinant NL4-3 proviral clone into 293T cells using Transit-293 Transfection Reagent from Mirus Bio LLC (Madison, Wis.). Supernatent was harvested after 2-3 days and the amount of virus present was titered in MT=2 cells using luciferase enzyme activity as a marker by measuring luciferase enzyme activity. Luciferase was quantitated using the EnduRen Live Cell Substrate from Promega (Madison, Wis.). Antiviral activities of compounds toward the recombinant virus were quantified by measuring luciferase activity in MT=2 cells infected for 4-5 days with the recombinant virus in the presence of serial dilutions of the compound.
The 50% effective concentration (EC50) was calculated by using the exponential form of the median effect equation where (Fa)=1/[1+(ED50/drug conc.)m] (Johnson V A, Byington RT. Infectivity Assay. In Techniques in HIV Research. ed. Aldovini A, Walker B D. 71-76. New York: Stockton Press.1990). The 50% inhibitory concentration (EC50) was calculated by using the exponential form of the median effect equation where percent inhibition=1/[1+(EC50/drug concentration)m], where m is a parameter that reflects the slope of the concentration-response curve.

Structures are written as SMILES.

`Cn1nc(NS(C)(=O)=O)c2c(Cl)ccc(-n3c([C@H](Cc4cc(F)cc(F)c4)NC(=O)Cn4nc(C5CC5)c5ccccc54)nc4nc(-c5ccccc5F)ccc4c3=O)c21` (atropisomer, axis not shown; (P)) [Example 15, (S)-N-(1-((3P)-3-(4-chloro-1-methyl-3-(methylsulfonamido)-1H-indazol-7-yl)-7-(2-fluorophenyl)-4-oxo-3,4-dihydropyrido[2,3-d]pyrimidin-2-yl)-2-(3,5-difluorophenyl)ethyl)-2-(3-cyclopropyl-1H-indazol-1-yl)acetamide]: in data set [1], the CC50 (usually the concentration giving 50% cytotoxicity) at 4 days is above 500 nM. Also, in the data set on recombinant NL4-3 virus, the half-maximal effective concentration (EC50) (in general, the concentration that produces a half-maximal response) is 0.17 nM.
On to `CS(=O)(=O)Nc1nn(CC(F)F)c2c(-n3c([C@H](Cc4cc(F)cc(F)c4)NC(=O)Cn4nc(C(F)F)cc4C4CC4)nc4nc(-c5ccccc5F)ccc4c3=O)ccc(Cl)c12` (atropisomer, axis not shown; (P)) [Example 16], for which, in data set [1], the CC50 at 4 days was above 500 nM. Besides, in the data set on recombinant NL4-3 virus, the EC50 turned out to be 0.37 nM.
In data set [1], `CS(=O)(=O)Nc1nn(CC(F)F)c2c(-n3c([C@H](Cc4cc(F)cc(F)c4)NC(=O)Cn4nc(C5CC5)cc4C(F)F)nc4nc(-c5ccccc5F)ccc4c3=O)ccc(Cl)c12` (atropisomer, axis not shown; (P)) [Example 17, (S)-N-(1-((3P)-3-(4-chloro-1-(2,2-difluoroethyl)-3-(methylsulfonamido)-1H-indazol-7-yl)-7-(2-fluorophenyl)-4-oxo-3,4-dihydropyrido[2,3-d]pyrimidin-2-yl)-2-(3,5-difluorophenyl)ethyl)-2-(3-cyclopropyl-5-(difluoromethyl)-1H-pyrazol-1-yl)acetamide] showed a CC50 at 4 days above 500 nM. For the same compound, in the data set with recombinant NL4-3 virus, the half-maximal effective concentration (EC50) is 0.52 nM.
Compound `CS(=O)(=O)Nc1nn(CC(F)F)c2c(-n3c([C@H](Cc4cc(F)cc(F)c4)NC(=O)Cn4nc(C5CC5)c5ccccc54)nc4nc(-c5ccccc5F)ccc4c3=O)ccc(Cl)c12` (atropisomer, axis not shown; (P)) [Example 18, (S)-N-(1-((3P)-3-(4-chloro-1-(2,2-difluoroethyl)-3-(methylsulfonamido)-1H-indazol-7-yl)-7-(2-fluorophenyl)-4-oxo-3,4-dihydropyrido[2,3-d]pyrimidin-2-yl)-2-(3,5-difluorophenyl)ethyl)-2-(3-cyclopropyl-1H-indazol-1-yl)acetamide] gave a CC50 at 4 days in data set [1] above 500 nM. Moreover, the concentration for a half-maximal effect (EC50) with recombinant NL4-3 virus is 0.17 nM.
In data set [1], `Cn1nc(NS(C)(=O)=O)c2c(Cl)ccc(-n3c([C@H](Cc4cc(F)cc(F)c4)NC(=O)C(C)(C)n4ccc(C5CC5)n4)nc4nc(-c5ccccc5F)ccc4c3=O)c21` (atropisomer, axis not shown; (P)) [Example 19, (S)-N-(1-((3P)-3-(4-chloro-1-methyl-3-(methylsulfonamido)-1H-indazol-7-yl)-7-(2-fluorophenyl)-4-oxo-3,4-dihydropyrido[2,3-d]pyrimidin-2-yl)-2-(3,5-difluorophenyl)ethyl)-2-(3-cyclopropyl-1H-pyrazol-1-yl)-2-methylpropanamide] had a half-maximal cytotoxic concentration (CC50) at 4 days above 500 nM. Further, the EC50 with recombinant NL4-3 virus is 0.22 nM.
Compound `CC(C)(C(=O)N[C@@H](Cc1cc(F)cc(F)c1)c1nc2nc(-c3ccccc3F)ccc2c(=O)n1-c1ccc(Cl)c2c(NS(C)(=O)=O)nn(CC(F)F)c12)n1ccc(C2CC2)n1` (atropisomer, axis not shown; (P)) [Example 20] had a CC50 at 4 days in data set [1] above 500 nM. In addition, in the data set on recombinant NL4-3 virus, the half-maximal effective concentration (EC50) came to 0.96 nM.
As to `CC(C)(C(=O)N[C@@H](Cc1cc(F)cc(F)c1)c1nc2nc(-c3ccccc3F)ccc2c(=O)n1-c1ccc(Cl)c2c(NS(=O)(=O)C3CC3)nn(CC(F)F)c12)n1ccc(C2CC2)n1` (atropisomer, axis not shown; (P)) [Example 21, (S)-N-(1-((3P)-3-(4-chloro-3-(cyclopropanesulfonamido)-1-(2,2-difluoroethyl)-1H-indazol-7-yl)-7-(2-fluorophenyl)-4-oxo-3,4-dihydropyrido[2,3-d]pyrimidin-2-yl)-2-(3,5-difluorophenyl)ethyl)-2-(3-cyclopropyl-1H-pyrazol-1-yl)-2-methylpropanamide], the half-maximal cytotoxic concentration (CC50) at 4 days in data set [1] was above 500 nM. In addition, in the data set on recombinant NL4-3 virus, the EC50 stood at 2.3 nM.
`CC(C)(C(=O)N[C@@H](Cc1cc(F)cc(F)c1)c1nc2nc(-c3ccccc3F)ccc2c(=O)n1-c1ccc(Cl)c2c(NS(C)(=O)=O)nn(CC(F)(F)F)c12)n1ccc(C2CC2)n1` (atropisomer, axis not shown; (P)) [Example 22, (S)-N-(1-((3P)-3-(4-chloro-3-(methylsulfonamido)-1-(2,2,2-trifluoroethyl)-1H-indazol-7-yl)-7-(2-fluorophenyl)-4-oxo-3,4-dihydropyrido[2,3-d]pyrimidin-2-yl)-2-(3,5-difluorophenyl)ethyl)-2-(3-cyclopropyl-1H-pyrazol-1-yl)-2-methylpropanamide]: the CC50 at 4 days in data set [1] is above 500 nM. For the same compound, the EC50 with recombinant NL4-3 virus turned out to be 0.8 nM.
With `CC(C)[C@@H](C(=O)N[C@@H](Cc1cc(F)cc(F)c1)c1nc2nc(-c3ccccc3F)ccc2c(=O)n1-c1ccc(Cl)c2c(NS(C)(=O)=O)nn(CC(F)(F)F)c12)n1ccc(C2CC2)n1` (atropisomer, axis not shown; (P)) [Example 23, N-((S)-1-((3P)-3-(4-chloro-3-(methylsulfonamido)-1-(2,2,2-trifluoroethyl)-1H-indazol-7-yl)-7-(2-fluorophenyl)-4-oxo-3,4-dihydropyrido[2,3-d]pyrimidin-2-yl)-2-(3,5-difluorophenyl)ethyl)-2-(3-cyclopropyl-1H-pyrazol-1-yl)-3-methylbutanamide], in data set [1], the CC50 at 4 days is above 500 nM. Further, in the data set on recombinant NL4-3 virus, the EC50 was determined as 0.21 nM.
The compound `CC(C)[C@H](C(=O)N[C@@H](Cc1cc(F)cc(F)c1)c1nc2nc(-c3ccccc3F)ccc2c(=O)n1-c1ccc(Cl)c2c(NS(=O)(=O)C3CC3)nn(CC(F)F)c12)n1ccc(C2CC2)n1` (atropisomer, axis not shown; (P)) [Example 24, N-((S)-1-((3P)-3-(4-chloro-3-(cyclopropanesulfonamido)-1-(2,2-difluoroethyl)-1H-indazol-7-yl)-7-(2-fluorophenyl)-4-oxo-3,4-dihydropyrido[2,3-d]pyrimidin-2-yl)-2-(3,5-difluorophenyl)ethyl)-2-(3-cyclopropyl-1H-pyrazol-1-yl)-3-methylbutanamide] registered a CC50 at 4 days in data set [1] above 500 nM. Further, in the data set with recombinant NL4-3 virus, the 50% effective concentration (EC50) was 3.9 nM.
In turn, `CC(C)[C@H](C(=O)N[C@@H](Cc1cc(F)cc(F)c1)c1nc2nc(-c3ccccc3F)ccc2c(=O)n1-c1ccc(Cl)c2c(NS(C)(=O)=O)nn(CC(F)(F)F)c12)n1ccc(C2CC2)n1` (atropisomer, axis not shown; (P)) [Example 26, N-((S)-1-((3P)-3-(4-chloro-3-(methylsulfonamido)-1-(2,2,2-trifluoroethyl)-1H-indazol-7-yl)-7-(2-fluorophenyl)-4-oxo-3,4-dihydropyrido[2,3-d]pyrimidin-2-yl)-2-(3,5-difluorophenyl)ethyl)-2-(3-cyclopropyl-1H-pyrazol-1-yl)-3-methylbutanamide] registered a CC50 at 4 days in data set [1] above 500 nM. For the same compound, the EC50 with recombinant NL4-3 virus is 1.9 nM.
`Cn1nc(NS(C)(=O)=O)c2c(Cl)ccc(-n3c([C@H](Cc4cc(F)cc(F)c4)NC(=O)Cn4nc(C5CC5)cc4C(F)F)nc4cc(-c5ccccc5F)ccc4c3=O)c21` (atropisomer, axis not shown; (P)) [Example 29, (S)-N-(1-((3P)-3-(4-chloro-1-methyl-3-(methylsulfonamido)-1H-indazol-7-yl)-7-(2-fluorophenyl)-4-oxo-3,4-dihydroquinazolin-2-yl)-2-(3,5-difluorophenyl)ethyl)-2-(3-cyclopropyl-5-(difluoromethyl)-1H-pyrazol-1-yl)acetamide] registered a CC50 at 4 days in data set [1] above 500 nM. Besides, in the data set with recombinant NL4-3 virus, the EC50 came to 3.1 nM.
Taken in the same sequence, the figures for `Cc1nccnc1-c1ccc2c(=O)n(-c3ccc(C)c4c(NS(C)(=O)=O)nn(CC(F)F)c34)c([C@H](Cc3cc(F)cc(F)c3)NC(=O)Cn3nc(C(F)F)c4c3C(F)(F)[C@@H]3C[C@H]43)nc2c1` (atropisomer, axis not shown; (P)) [Example 32, N-((S)-1-(3-(1-(2,2-difluoroethyl)-4-methyl-3-(methylsulfonamido)-1H-indazol-7-yl)-(3P)-7-(3-methylpyrazin-2-yl)-4-oxo-3,4-dihydroquinazolin-2-yl)-2-(3,5-difluorophenyl)ethyl)-2-((3bS,4aR)-3-(difluoromethyl)-5,5-difluoro-3b,4,4a,5-tetrahydro-1H-cyclopropa[3,4]cyclopenta[1,2-c]pyrazol-1-yl)acetamide] were above 500 nM and 0.063 nM.
